The results in this text go back to patent US20060084704A1, “Methods and compositions for enhancing degradation of nuclear receptor transcription factors and uses thereof” (priority 2004, published 2006).

The structures appear in SMILES notation. Entries after “also recorded” stand apart in the source; their conditions may differ.

The target in assay [1] is T1, androgen receptor (AR) (Homo sapiens, UniProt P10275).
T1 construct: endogenous in cells; host or cells: T47D
T1 sequence (P10275 1-920): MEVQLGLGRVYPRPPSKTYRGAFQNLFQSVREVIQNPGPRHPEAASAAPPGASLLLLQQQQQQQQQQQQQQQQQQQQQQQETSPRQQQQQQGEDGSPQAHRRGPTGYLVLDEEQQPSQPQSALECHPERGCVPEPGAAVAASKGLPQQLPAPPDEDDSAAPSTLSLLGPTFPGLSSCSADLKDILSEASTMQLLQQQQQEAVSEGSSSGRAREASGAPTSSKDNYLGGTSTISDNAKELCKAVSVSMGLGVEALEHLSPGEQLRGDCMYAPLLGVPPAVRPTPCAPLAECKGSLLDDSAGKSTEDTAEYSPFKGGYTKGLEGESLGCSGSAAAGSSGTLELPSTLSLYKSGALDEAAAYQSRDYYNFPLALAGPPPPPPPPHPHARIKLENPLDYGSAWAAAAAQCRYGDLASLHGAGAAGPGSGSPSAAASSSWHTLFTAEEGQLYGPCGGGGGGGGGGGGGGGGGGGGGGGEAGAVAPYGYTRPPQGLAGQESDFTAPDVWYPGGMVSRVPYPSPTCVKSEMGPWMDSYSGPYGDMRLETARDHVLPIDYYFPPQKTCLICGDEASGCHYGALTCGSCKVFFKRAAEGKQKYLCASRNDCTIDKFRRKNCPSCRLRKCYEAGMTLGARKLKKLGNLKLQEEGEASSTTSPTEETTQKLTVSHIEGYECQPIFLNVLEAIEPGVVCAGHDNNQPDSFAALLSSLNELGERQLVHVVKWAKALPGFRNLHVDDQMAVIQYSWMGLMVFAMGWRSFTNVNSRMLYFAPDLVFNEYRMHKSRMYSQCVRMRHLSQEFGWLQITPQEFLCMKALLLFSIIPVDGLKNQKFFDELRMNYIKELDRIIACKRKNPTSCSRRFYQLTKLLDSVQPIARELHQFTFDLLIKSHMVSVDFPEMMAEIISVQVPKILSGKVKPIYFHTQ
Briefly: Western blot of T47D cell lysates, AR. To be noted: 5 or 10 micromolar, presence or absence of estradiol (E2). The assay is classed as cell-based. The protocol:
Human prostate cancer LNCaP cells and T47D cells were plated at a density of 7×10^5 cells per 60 millimeter tissue culture dish in […] (RPMI) medium containing 10% FBS. The medium was changed to RPMI or DME medium containing 10% charcoal-stripped serum 24 hours later to deplete cellular androgens or estrogens. After another 24 hours, treatment with the test compounds began. The test dose of JC15 was 1 or 2 micromolar and the test does of JC9 was 1, 5 and 10 micromolar. LNCap cells also received dihydrotestosterone (DHT) (3 nanomolar). Control cells received a corresponding amount of the vehicle, dimethylsulfoxide (DMSO) (<0.04%) for an equivalent exposure time. Cells were incubated with JC15 for 24 or 48 hours, and were lysed in 250 microliters of 1×SDS/PAGE loading buffer. Approximately 40 micrograms of total cellular protein was loaded in each lane of a pre-cast gel (NuPAGE, Invitrogen). Protein separation and transfer were performed following the manufacturer's instructions.
A general note: In western blotting, separated proteins are transferred to a membrane and probed.

Assay [2] relates to testosterone-induced hair growth suppression. The assay can be described thus: Androgen-induced alopecia model, hair re-growth in shaved mice. The format is in vivo, C57BL/6J mice. To be noted: topical testosterone 1% in the morning, JC9 0.02% in the afternoon, 20 days. The protocol:
C57BL/6J mice were used in this animal model for hair loss and regrowth (Uno et al. (1990) J. Cutaneous Aging & Cosm. Derm., 1: 193, which is incorporated by reference in its entirety herein). Six-week-old male mice (6 to 7 animals per group) were shaved with an electric clipper, and then treated with a hair-removal cream for 1 to 2 minutes. […] One day after hair removal, a first group of animals each received 100 microliters of a 1% testosterone solution in ethanol, applied topically to the shaved area, once each morning for twenty consecutive days. A second group of animals each received 100 microliters of vehicle (ethanol) alone, applied topically to the shaved area, once each morning for twenty consecutive days. The first group of mice (testosterone-treated) were divided further into a control group and a treatment group. Also beginning one day after hair removal, each mouse in the control group received 100 microliters of a control solution (60% ethanol, 20% propylene glycol, and 20% water) and each mouse in the treatment group received 100 microliters of the test compound, JC9 (0.02% in the same 60% ethanol, 20% propylene glycol, and 20% water solution), applied topically to the shaved area, once each afternoon for twenty consecutive days. Hair re-growth in the shaved areas was observed and photographed at 12, 15, 18, 21, and 24 days after beginning of the topical treatments.

In assay [3] the test system is LNCaP tumor cells. Briefly: In vivo LNCaP xenograft tumor growth in nude mice. The settings on record: JC9 100 mg/kg/day ip three times per week, 7 weeks. The protocol: In related in vivo studies, LNCap human prostate tumor cells are xenografted by subcutaneous injection (2×10^6 per site) into nude mice. Mice are subsequently treated by intraperitoneal injection of either the vehicle solution alone as a control or the test compounds (JC9)) at a dose of 100 milligrams per kilogram body weight, three times a week for 7 weeks. Tumor volume is measured twice a week over the next 7 weeks. […] Such results can be taken as a strong indication that the suppression of AR activity and the resulting reduction of tumor growth induced by AR-degrading compounds such as JC15 or by JC9, may be translated into a practical use for treating or preventing diseases and disorders related to AR activity, such as prostate and other cancers.
Two million LNCaP tumor cells were inoculated, subcutaneously, into the left flank of nude mice. In the experimental animals, the nude mice were give an intraperitoneal (ip) injection of compound JC9 at 100 mg/kg/day three times per week or with vehicle control only. After 7 weeks of treatment the tumors were excised, weighed and compared. The tumor weight in ratio of vehicle control to JC9 was 0.694 g:0.172 g.

As to `COc1ccc(C=CC(=O)C=C(O)C=Cc2ccc(OC)c(OC)c2)cc1OC` [JC9, 5-hydroxy-1,7-bis(3,4-dimethoxyphenyl)-1,4,6-heptatrien-3-one], the “cellular concentration of AR” value in assay [1] is “decreased”. Moreover, the “hair re-growth in shaved areas” value in assay [2] is “rapid re-growth of hair in the shaved areas from day 10 to day 20; also recorded: hair growth on day 8 and fully re-growth of hair in the shaved areas after 20 days”. For the same compound, in assay [3], the “reduction in tumor size compared to vehicle control” value amounted to 75% and the tumor weight is 0.172 g.
